Where “and” joins values, the source holds several entries; their conditions need not be identical. Equal values may be shown once.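 Compound exposure: 48 hours, 5 concentrations, 96-well plates. GI50: concentration for 50% inhibition of growth. TGI: concentration producing complete growth inhibition.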
Tests used:
Test in all cases: NCI tumour cell line growth inhibition, 48 h
[1] = tested on: OVCAR-8 ovarian
[2] = tested on: ACHN renal
[3] = tested on: HOP-62 NSCLC
[4] = tested on: HS 578T breast
[5] = tested on: SK-MEL-28 melanoma
[6] = tested on: SF-539 CNS
[7] = tested on: EKVX NSCLC
[8] = tested on: SK-MEL-2 melanoma
[9] = tested on: SN12C renal
[10] = tested on: SNB-75 CNS

Structure (SMILES)	TGI [1] [µM]	TGI [2] [µM]	TGI [3] [µM]	TGI [4] [µM]	TGI [5] [µM]	TGI [6] [µM]	TGI [7] [µM]	TGI [8] [µM]	TGI [9] [µM]	TGI [10] [µM]	GI50 [1] [µM]	GI50 [2] [µM]	GI50 [3]	GI50 [4] [µM]	GI50 [5] [µM]	GI50 [6] [µM]	GI50 [7] [µM]	GI50 [8]	GI50 [9] [µM]	GI50 [10] [µM]
CC(=O)C1=C(O)/C(=C\c2ccco2)OC1=O	> 10	> 10	> 10	> 10	> 10	> 10	> 10	> 10	> 10	> 10										
O=C(Nc1ccccc1)Nc1ccccc1CNc1nc(Nc2ccc(OCCN3CCCC3)cc2)ncc1Cl	> 50	6.83	21.8	15.7	11.9	6.23	15.4	13.5	9.12	6.22	7.62	1.85	6.96 µM	2.38	5.62	1.72	7.02	4.74 µM	2.41	1.2
C=C(C)[C@]12CC(C)C34OC(/C=C\C=C\CCCCCCCCC)(O[C@@H]1[C@@H]3[C@@H]1O[C@]1(CO)[C@@H](O)[C@]1(O)C(=O)C(C)=C[C@@H]41)O2 (stereo partly drawn)	31.8	22.8		3.97	25.6	17.2	27.8		7.86	22										
CCCCCCN1C(=O)CN=C1Nc1ccc2cc3ccc(NC4=NCC(=O)N4CCCCCC)cc3nc2c1		3.42		5.66	5.92	3.63	5.22	8.45	3.45	12.4		1.76		2.08	2.21	1.81	1.89	2.79 µM	1.75	2.15
Cc1csc(Nc2nc(-c3cccc(Cl)c3)nc(C(Cl)(Cl)Cl)n2)n1	> 33.3	3.46	7.99	13.2	> 33.3	11.7	6.89	> 33.3	> 33.3		7.77	0.888	1.27 µM	1.79	3.53	2.04	1.25	25.8 µM	13.5	
O=C(NO)C(O)C(O)C(O)C(O)CO (stereo not drawn)	> 100	> 100	> 100	> 100	> 100	> 100	> 100	> 100	> 100		> 100	> 100	> 92.5 µM and 68.3 µM	> 100	> 100	> 100	> 100	> 100 µM and 76.6 µM	> 100	
CCSc1nc(N)c2cnn(C)c2n1	> 100	> 100		74	> 100	> 100	> 100	> 100	> 100	> 100	49.4	44.4		30.7	62.3	36.1	56.7	> 100 µM	48.9	68.9
